For three compounds, IC50 and Ratio results are on record in patent US5872144A, “4-aminoethoxyindazole derivatives” (American Home Products Corporation, priority 1998, dated 1999).

Each structure is given as a SMILES string.

Experiment [1] has as its target T1, dopamine autoreceptor (D2) (Rattus norvegicus, UniProt P61169).
T1 construct: homogenized rat striatal brain tissue; from tissue; host or cells: rat striatum, homogenate
In words: 3H-quinpirole (D2 Quin.) binding, homogenized rat striatal brain tissue, affinity for dopamine autoreceptor. On the procedure: Affinity for the dopamine autoreceptor was established by a modification of the standard experimental test procedure of Seemen and Schaus, European Journal of Pharmacology 203, 105-109, 1991, wherein homogenized rat striatal brain tissue is incubated with ^3 H-quinpirole (Quin.) and various concentrations of test compound, filtered and washed and counted in a Betaplate scintillation counter.

A further experiment addresses T2, dopamine D-2 receptor (Rattus norvegicus, UniProt P61169).
T2 construct: from tissue; host or cells: limbic brain tissue, homogenate
The experiment in a line: 3H-spiroperidol (D2 Spiper.) binding, homogenized limbic brain tissue. On the procedure: High affinity for the dopamine D-2 receptor was established by the standard experimental test procedure of Fields, et al., Brain Res., 136, 578 (1977) and Yamamura et al., eds., Neurotransmitter Receptor Binding, Raven Press, N.Y. (1978) wherein homogenized limbic brain tissue is incubated with ^3 H-spiroperidol (Spiper.) and various concentrations of test compound, filtered and washed and shaken with Hydrofluor scintillation cocktail (National Diagnostics) and counted in a Packard 460 CD scintillation counter.

Another experiment has as its system dopamine D2 receptor. In words: Intrinsic activity at the dopamine D2 receptor, ratio LowAg/HighAg. The format is binding. Conditions: D2 Spiper IC50 / D2 Quin. IC50 (LowAg/HighAg). The source says:
Efforts to induce antipsychotic activity with dopamine autoreceptor agonists have been successful (Dorsini et al., Adv. Biochem. […] et al., Science, 200, 567-568, 1975; and […] et al., Psychiatry, 398-402, 1986). […] Pharm., 42, 432-438, (1993)]. Intrinsic activity is predicted using the ratio of the "low-affinity agonist" (LowAg) state of the receptor and the "high-affinity agonist" ([…]) state of the receptor, […]. These ratios correlate with the agonist, partial agonist, and antagonist activities of a given compound, which activities characterize a compounds ability to elicit an antipsychotic effect. […] Activation of the dopamine autoreceptors results in reduced neuronal firing a well as inhibition of dopamine synthesis and release and therefore provide a means of controlling hyperactivity of the dopaminergic systems. The compounds of this invention were also found to have high intrinsic activity and therefore they can behave as the natural neurotransmitter i.e. as full agonists. […] Affinity for the dopamine autoreceptor was established by a modification of the standard experimental test procedure of Seemen and Schaus, European Journal of Pharmacology 203, 105-109, 1991, wherein homogenized rat striatal brain tissue is incubated with ^3 H-quinpirole (Quin.) and various concentrations of test compound, filtered and washed and counted in a Betaplate scintillation counter. […]

T1 sequence (P61169 whole entry): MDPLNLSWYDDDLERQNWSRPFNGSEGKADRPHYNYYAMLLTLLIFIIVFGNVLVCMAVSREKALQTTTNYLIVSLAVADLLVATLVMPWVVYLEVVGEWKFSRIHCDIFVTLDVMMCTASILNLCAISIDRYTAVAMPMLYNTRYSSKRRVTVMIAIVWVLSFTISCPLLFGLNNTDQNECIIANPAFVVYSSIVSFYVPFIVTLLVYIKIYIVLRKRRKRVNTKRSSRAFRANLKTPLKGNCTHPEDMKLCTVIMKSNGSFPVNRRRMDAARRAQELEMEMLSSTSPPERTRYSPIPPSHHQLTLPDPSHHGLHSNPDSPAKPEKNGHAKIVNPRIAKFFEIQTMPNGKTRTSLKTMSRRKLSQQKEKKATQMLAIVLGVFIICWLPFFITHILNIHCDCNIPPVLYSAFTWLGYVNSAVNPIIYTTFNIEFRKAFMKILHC
T2 sequence (P61169 whole entry): as above

As a reminder, the IC50 is the concentration that gives 50% inhibition. A low value points to greater potency. Compound `c1cc(OCCNCc2ccsc2)c2cn[nH]c2c1` [Example 3, [2-(1H-Indazol-4-yloxy)-ethyl]-thiophen-3-ylmethyl-amine] yielded an IC50 in experiment [1] of 2.78 nM.

In the case of `c1csc(CNCCOc2cccc3[nH]ncc23)c1` [Example 2, [2-(1H-Indazol-4-yloxy)-ethyl]-thiophen-2-ylmethyl-amine], the results for the IC50 (on dopamine D-2 receptor; in experiment [1]) were 1090 nM and 4.3 nM, respectively. In the experiment with dopamine D2 receptor, the Ratio turned out to be 254.

Take `c1ccc(CNCCOc2cccc3[nH]ncc23)cc1` [Example 1, Benzyl-[2-(1H-indazo-4-yloxy)-ethyl]-amine]: the IC50 on dopamine D-2 receptor is 333 nM; in experiment [1], 2.23 nM. Further, the Ratio in the experiment on dopamine D2 receptor is recorded as 151.
